Earlier results in patent US20070105912A1, “Pharmaceutical compositions comprising lercanidipine” (priority 2003, published 2007).
“And” between values parts separate entries of the source, which are not always exact repeats. Identical values can stand only once.

Columns and labels:
[1] = test system: plasma proteins

Structure (SMILES): COC(=O)C1=C(C)NC(C)=C(C(=O)OC(C)(C)CN(C)CCC(c2ccccc2)c2ccccc2)C1c1cccc([N+](=O)[O-])c1 (centres unmarked) [Lercanidipine, methyl 1,1-N-trimethyl-N-(3,3-diphenylpropyl)aminoethyl 1,4dihydro 6-dimethyl (3-nitrophenyl)pyridine-3,5-dicarboxylate]
- Terminal elimination t1/2 (in vivo): 2 to 5 h
- Time of peak plasma levels following dosing (oral administration): 1.5 to 3 h
- Fraction of the oral dose excreted in urine (oral dose): about 50%
- Increase of amount absorbed with simultaneous intake of food (oral, with food vs without food): 3 to 4 times and 3-4 times
- Bound to plasma proteins [1]: more than 98%
